Reference: patent US10160755B2 (Plexxikon Inc., priority 2015, dated 2018)

biological target: T1, BA/F3-FLT3-ITD + F691L cells (Homo sapiens, UniProt P36888, F691L, cells depend on it, form not given); test: BA/F3-FLT3-ITD + F691L cell proliferation assay (CellTiter-Glo); type: cell-based, murine; settings: BaF3 FLT3 ITD/F691L cells; read-out: Cell Activity (IC50 μM) BaF3_FLT3_ITD/F691L
T1 sequence (P36888 1-993 F691L): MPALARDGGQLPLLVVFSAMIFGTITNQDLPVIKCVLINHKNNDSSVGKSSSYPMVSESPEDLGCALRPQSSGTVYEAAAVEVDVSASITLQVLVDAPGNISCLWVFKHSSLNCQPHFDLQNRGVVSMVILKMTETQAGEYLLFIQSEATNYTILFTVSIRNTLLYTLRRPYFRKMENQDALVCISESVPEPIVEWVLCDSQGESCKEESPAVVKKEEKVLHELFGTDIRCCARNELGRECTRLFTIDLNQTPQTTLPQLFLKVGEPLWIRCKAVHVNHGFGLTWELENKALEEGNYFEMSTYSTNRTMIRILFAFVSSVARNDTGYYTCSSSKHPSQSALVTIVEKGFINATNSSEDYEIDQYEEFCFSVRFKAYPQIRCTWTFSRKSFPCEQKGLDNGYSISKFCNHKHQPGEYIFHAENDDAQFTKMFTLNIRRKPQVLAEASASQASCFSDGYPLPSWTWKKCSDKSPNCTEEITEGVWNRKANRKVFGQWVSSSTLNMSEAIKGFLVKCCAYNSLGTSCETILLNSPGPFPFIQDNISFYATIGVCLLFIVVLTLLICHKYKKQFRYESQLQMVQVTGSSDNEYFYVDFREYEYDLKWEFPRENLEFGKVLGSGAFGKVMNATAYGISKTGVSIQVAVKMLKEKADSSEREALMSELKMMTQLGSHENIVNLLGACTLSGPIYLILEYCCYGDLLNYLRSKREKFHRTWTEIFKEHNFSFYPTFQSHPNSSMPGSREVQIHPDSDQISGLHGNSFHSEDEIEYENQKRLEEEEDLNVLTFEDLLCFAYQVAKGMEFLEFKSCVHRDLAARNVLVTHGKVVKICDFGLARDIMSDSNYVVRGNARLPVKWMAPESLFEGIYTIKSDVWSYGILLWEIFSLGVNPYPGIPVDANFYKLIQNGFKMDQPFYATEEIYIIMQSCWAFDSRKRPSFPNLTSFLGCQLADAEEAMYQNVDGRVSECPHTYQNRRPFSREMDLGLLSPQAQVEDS
Method in brief: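 Murine BA/F3 cells transfected with full-length FLT3 carrying ITD plus D835Y or F691L, grown without IL-3 so growth depends on FLT3. Seeded at 1×10^4 cells/well and dosed with 8 points, 10 to 0.0046 μM, 0.2% DMSO, for three days at 37 °C. IC50 from CellTiter-Glo luminescence (ATP content).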

GI50 [µM] | SMILES
0.0001 to 1 | COc1cc(-c2cnc3[nH]cc(-c4ccc5ncn(C6CCCN(C(C)=O)C6)c5c4)c3n2)ccn1 (stereo not drawn) [P-260, 1-[3-[6-[2-(2-methoxy-4-pyridyl)-5H-pyrrolo[2,3-b]pyrazin-7-yl]benzimidazol-1-yl]-1-piperidyl]ethanone]
0.0001 to 1 | C(#Cc1cnc2[nH]cc(-c3ccc4ncn(C5CCCNC5)c4c3)c2n1)c1ccccc1 (stereo not drawn) [P-248, 2-(2-phenylethynyl)-7-[3-(3-piperidyl)benzimidazol-5-yl]-5H-pyrrolo[2,3-b]pyrazine]
0.0001 to 1 | CC(C)(C)n1cnc2ccc(-c3c[nH]c4ncc(-c5cccc(S(=O)(=O)N6CCCC6)c5)nc34)cc21 [P-229, 7-(3-tert-butylbenzimidazol-5-yl)-2-(3-pyrrolidin-1-ylsulfonylphenyl)-5H-pyrrolo[2,3-b]pyrazine]
0.0001 to 1 | COc1cc(-c2cnc3[nH]cc(-c4ccc5ncn(C6CCCNC6)c5c4)c3n2)cc(OC)n1 (stereo not drawn) [P-195, 2-(2,6-dimethoxy-4-pyridyl)-7-[3-(3-piperidyl)benzimidazol-5-yl]-5H-pyrrolo[2,3-b]pyrazine]
0.0001 to 1 | CCCS(=O)(=O)Nc1cccc(-c2cnc3[nH]cc(-c4ccc5ncn(C(C)(C)C)c5c4)c3n2)c1 [P-225, N-[3-[7-(3-tert-butylbenzimidazol-5-yl)-5H-pyrrolo[2,3-b]pyrazin-2-yl]phenyl]propane-1-sulfonamide]
0.0001 to 1 | O=S1(=O)CCCCN1c1cccc(-c2cnc3[nH]cc(-c4ccc5ncn(C6CCCNC6)c5c4)c3c2)c1 (stereo not drawn) [P-224, 2-[3-[3-[3-(3-piperidyl)benzimidazol-5-yl]-1H-pyrrolo[2,3-b]pyridin-5-yl]phenyl]thiazinane 1,1-dioxide]
0.0001 to 1 | CC(C)(CO)n1cnc2ccc(-c3c[nH]c4ncc(-c5cccc(NS(C)(=O)=O)c5)nc34)cc21 [P-115, N-[3-[7-[3-(2-hydroxy-1,1-dimethyl-ethyl)benzimidazol-5-yl]-5H-pyrrolo[2,3-b]pyrazin-2-yl]phenyl]methanesulfonamide]
0.0001 to 1 | CN(c1cccc(-c2cnc3[nH]cc(-c4ccc5ncn(C)c5c4)c3n2)c1)S(C)(=O)=O [P-150, N-methyl-N-[3-[7-(3-methylbenzimidazol-5-yl)-5H-pyrrolo[2,3-b]pyrazin-2-yl]phenyl]methanesulfonamide]
0.0001 to 1 | N#Cc1cc(-c2cnc3[nH]cc(-c4ccc5ncn(C6CCCNC6)c5c4)c3c2)ccc1F (stereo not drawn) [P-208, 2-fluoro-5-[3-[3-(3-piperidyl)benzimidazol-5-yl]-1H-pyrrolo[2,3-b]pyridin-5-yl]benzonitrile]
0.0001 to 1 | CC(C)(C)n1cnc2ccc(-c3c[nH]c4ncc(NC(=O)c5cccc(C#N)c5)cc34)cc21 [P-235, N-[3-(3-tert-butylbenzimidazol-5-yl)-1H-pyrrolo[2,3-b]pyridin-5-yl]-3-cyano-benzamide]
0.0001 to 1 | COc1ncccc1C#Cc1cnc2[nH]cc(-c3ccc4ncn(C(C)(C)C)c4c3)c2n1 [P-250, 7-(3-tert-butylbenzimidazol-5-yl)-2-[2-(2-methoxy-3-pyridyl)ethynyl]-5H-pyrrolo[2,3-b]pyrazine]
0.0001 to 1 | CC(C)(C)n1cnc2ccc(-c3c[nH]c4ncc(-c5ccnc(N6CCOCC6)c5)nc34)cc21 [P-228, 4-[4-[7-(3-tert-butylbenzimidazol-5-yl)-5H-pyrrolo[2,3-b]pyrazin-2-yl]-2-pyridyl]morpholine]
0.0001 to 1 | CC(C)(C)n1cnc2ccc(-c3c[nH]c4ncc(-c5cccc(N6CCCS6(=O)=O)c5)nc34)cc21 [P-231, 2-[3-[7-(3-tert-butylbenzimidazol-5-yl)-5H-pyrrolo[2,3-b]pyrazin-2-yl]phenyl]-1,2-thiazolidine 1,1-dioxide]
0.0001 to 1 | CCCS(=O)(=O)Nc1cccc(-c2cnc3[nH]cc(-c4ccc5ncn(C6CCCNC6)c5c4)c3c2)c1 (stereo not drawn) [P-217, N-[3-[3-[3-(3-piperidyl)benzimidazol-5-yl]-1H-pyrrolo[2,3-b]pyridin-5-yl]phenyl]propane-1-sulfonamide]
0.0001 to 1 | CC(C)S(=O)(=O)Nc1cccc(-c2cnc3[nH]cc(-c4ccc5ncn(C6CCCNC6)c5c4)c3c2)c1 (stereo not drawn) [P-215, N-[3-[3-[3-(3-piperidyl)benzimidazol-5-yl]-1H-pyrrolo[2,3-b]pyridin-5-yl]phenyl]propane-2-sulfonamide]
0.0001 to 1 | COc1cnc2[nH]cc(-c3ccc4ncn(Cc5ccc(F)cc5)c4c3)c2c1 [P-110, 1-[(4-fluorophenyl)methyl]-6-(5-methoxy-1H-pyrrolo[2,3-b]pyridin-3-yl)benzimidazole]
0.0001 to 1 | CCCS(=O)(=O)Nc1cccc(-c2cnc3[nH]cc(-c4ccc5ncn(C(C)(C)C)c5c4)c3c2)c1 [P-216, N-[3-[3-(3-tert-butylbenzimidazol-5-yl)-1H-pyrrolo[2,3-b]pyridin-5-yl]phenyl]propane-1-sulfonamide]
0.0001 to 1 | COc1cc(-c2cnc3[nH]nc(-c4ccc5ncn(C(C)(C)C)c5c4)c3c2)ccn1 [P-272, 3-(1-(tert-butyl)-1H-benzo[d]imidazol-6-yl)-5-(2-methoxypyridin-4-yl)-1H-pyrazolo[3,4-b]pyridine]
0.0001 to 1 | CC(C)(C)n1cnc2ccc(-c3c[nH]c4ncc(C(=O)Nc5cccc(C#N)c5)cc34)cc21 [P-218, 3-(3-tert-butylbenzimidazol-5-yl)-N-(3-cyanophenyl)-1H-pyrrolo[2,3-b]pyridine-5-carboxamide]
0.0001 to 1 | CC(C)(C)n1cnc2ccc(-c3c[nH]c4ncc(-c5ccc(N6CCOCC6)cc5)nc34)cc21 [P-100, 4-[4-[7-(3-tert-butylbenzimidazol-5-yl)-5H-pyrrolo[2,3-b]pyrazin-2-yl]phenyl]morpholine]
0.0001 to 1 | CC(C)n1cnc2ccc(-c3c[nH]c4ncc(-c5cnn(C(F)F)c5)cc34)cc21 [P-267, 5-[1-(difluoromethyl)pyrazol-4-yl]-3-(3-isopropylbenzimidazol-5-yl)-1H-pyrrolo[2,3-b]pyridine]
0.0001 to 1 | COc1cc(C#Cc2cnc3[nH]cc(-c4ccc5ncn(C(C)(C)C)c5c4)c3c2)ccn1 [P-240, 1-(tert-butyl)-6-(5-((2-methoxypyridin-4-yl)ethynyl)-1H-pyrrolo[2,3-b]pyridin-3-yl)-1H-benzo[d]imidazole]
0.0001 to 1 | CC(C)(C)n1cnc2ccc(-c3c[nH]c4ncc(-c5ccc(F)c(C#N)c5)nc34)cc21 [P-230, 5-[7-(3-tert-butylbenzimidazol-5-yl)-5H-pyrrolo[2,3-b]pyrazin-2-yl]-2-fluoro-benzonitrile]
0.0001 to 1 | c1cc(-c2cnc3[nH]cc(-c4ccc5ncn(C6CCCNC6)c5c4)c3n2)cc(N2CCOCC2)n1 (stereo not drawn) [P-262, 4-[4-[7-[3-(3-piperidyl)benzimidazol-5-yl]-5H-pyrrolo[2,3-b]pyrazin-2-yl]-2-pyridyl]morpholine]
0.0001 to 1 | COc1cc(C(=O)Nc2cnc3[nH]cc(-c4ccc5ncn(C6CCCNC6)c5c4)c3c2)ccn1 (stereo not drawn) [P-247, 2-methoxy-N-[3-[3-(3-piperidyl)benzimidazol-5-yl]-1H-pyrrolo[2,3-b]pyridin-5-yl]pyridine-4-carboxamide]
0.0001 to 1 | CC(C)n1cnc2ccc(-c3c[nH]c4ncc(-c5cnn(CC(F)(F)F)c5)cc34)cc21 [P-268, 1-isopropyl-6-[5-[1-(2,2,2-trifluoroethyl)pyrazol-4-yl]-1H-pyrrolo[2,3-b]pyridin-3-yl]benzimidazole]
0.0001 to 1 | COc1cnc2[nH]cc(-c3ccc4ncn(-c5ccc(Cl)cc5)c4c3)c2c1 [P-104, 1-(4-chlorophenyl)-6-(5-methoxy-1H-pyrrolo[2,3-b]pyridin-3-yl)benzimidazole]
0.0001 to 1 | N#Cc1cccc(-c2cnc3[nH]cc(-c4ccc5ncn(-c6ccc(F)c(Cl)c6)c5c4)c3c2)c1 [P-210, 3-[3-[3-(3-chloro-4-fluoro-phenyl)benzimidazol-5-yl]-1H-pyrrolo[2,3-b]pyridin-5-yl]benzonitrile]
0.0001 to 1 | CC(C)(C)n1cnc2ccc(-c3c[nH]c4ncc(-c5cnc(N6CCOCC6)nc5)cc34)cc21 [P-266, 4-[5-[3-(3-tert-butylbenzimidazol-5-yl)-1H-pyrrolo[2,3-b]pyridin-5-yl]pyrimidin-2-yl]morpholine]
0.0001 to 1 | COc1ncc(-c2cnc3[nH]cc(-c4ccc5ncn(C6CCCNC6)c5c4)c3n2)cn1 (stereo not drawn) [P-264, 2-(2-methoxypyrimidin-5-yl)-7-[3-(3-piperidyl)benzimidazol-5-yl]-5H-pyrrolo[2,3-b]pyrazine]
